Here are results for nine molecules from patent US20250000093A1, “HETEROCYCLIC COMPOUNDS FOR THE CONTROL OF INVERTEBRATE PESTS” (BASF SE, priority 2021, published 2025).

Holding throughout (format): in vivo
One assay deals with Anthonomus grandis. The assay is described as follows: B.4 Boll weevil, insect diet and eggs in microtiter plates. Conditions: 120 h, egg and larval mortality, 5 days, read-out: mortality in comparison with untreated controls. On the procedure:
B.4 Boll Weevil (Anthonomus grandis)
For evaluating control of boll weevil (Anthonomus grandis) the test unit consisted of 96-well-microtiter plates containing an insect diet and 5-10 A. grandis eggs.
The compounds were formulated using a solution containing 75% v/v water and 25% v/v DMSO. Different concentrations of formulated compounds were sprayed onto the insect diet at 5 μl, using a custom-built micro atomizer, at two replications.
After application, microtiter plates were incubated at about 25±1° C. and about 75±5% relative humidity for 5 days. Egg and larval mortality was then visually assessed.

Another assay concerns Heliothis virescens. The assay is described as follows: B.3 Tobacco budworm, insect diet and eggs in microtiter plates. Conditions: 120 h, egg and larval mortality, 5 days, read-out: mortality in comparison with untreated controls. The procedure: B.3 Tobacco Budworm (Heliothis virescens)
For evaluating control of tobacco budworm (Heliothis virescens) the test unit consisted of 96-well-microtiter plates containing an insect diet and 15-25 H. virescens eggs.
The compounds were formulated using a solution containing 75% v/v water and 25% v/v DMSO. Different concentrations of formulated compounds were sprayed onto the insect diet at 10 μl, using a custom-built micro atomizer, at two replications.
After application, microtiter plates were incubated at about 28±1° C. and about 80±5% relative humidity for 5 days. Egg and larval mortality was then visually assessed.

A further assay relates to Dichromothrips corbetti. Briefly: B.6 Orchid thrips, floral-immersion technique. Conditions: for mortality at 300 ppm: Dichromothrips corbetti, adult thrips, 72 hours after treatment, read-out: mortality in comparison with untreated controls; for B.6, 100 ppm: comparative experiment, thrips mortality, unit not given. On the procedure:
B.6 Orchid Thrips (Dichromothrips corbetti)
Dichromothrips corbetti adults used for bioassay were obtained from a colony maintained continuously under laboratory conditions. For testing purposes, the test compound is diluted in a 1:1 mixture of acetone:water (vol:vol), plus Kinetic HV at a rate of 0.01% v/v.
Thrips potency of each compound was evaluated by using a floral-immersion technique. All petals of individual, intact orchid flowers were dipped into treatment solution and allowed to dry in Petri dishes. Treated petals were placed into individual re-sealable plastic along with about 20 adult thrips. All test arenas were held under continuous light and a temperature of about 28° C. for duration of the assay. After 3 days, the numbers of live thrips were counted on each petal. The percent mortality was recorded 72 hours after treatment.

A further assay relates to Myzus persicae. Briefly: B.2 Green peach aphid, systemic test on artificial diet in microtiter plates. The settings on record: for mortality at 2500 ppm: Myzus persicae, 72 h, adult aphids, 3 days, read-out: mortality in comparison with untreated controls; for B.2, 10 ppm / B.2, 25 ppm: comparative experiment, aphid mortality, unit not given. The text has this: B.2 Green Peach Aphid (Myzus persicae)
For evaluating control of green peach aphid (Myzus persicae) through systemic means the test unit consisted of 96-well-microtiter plates containing liquid artificial diet under an artificial mem brane.
The compounds were formulated using a solution containing 75% v/v water and 25% v/v DMSO. Different concentrations of formulated compounds were pipetted into the aphid diet, using a custom built pipetter, at two replications.
After application, 5-8 adult aphids were placed on the artificial membrane inside the microtiter plate wells. The aphids were then allowed to suck on the treated aphid diet and incubated at about 23±1° C. and about 50±5% relative humidity for 3 days. Aphid mortality and fecundity was then visually assessed.

The test system of a further assay is Spodoptera eridania. The assay is described as follows: B.5 Southern armyworm, 2nd instar larvae, sprayed lima bean plants. Conditions: 96 h, 4 days after treatment, read-out: mortality in comparison with untreated controls. The procedure:
B.5. Southern Armyworm (Spodoptera eridania), 2nd Instar Larvae
The active compounds were formulated by a Tecan liquid handler in 100% cyclohexanone as a 10,000 ppm solution supplied in tubes. The 10,000 ppm solution was serially diluted in 100% cyclohexanone to make interim solutions. These served as stock solutions for which final dilutions were made by the Tecan in 50% acetone:50% water (v/v) into 10 or 20 ml glass vials. A nonionic surfactant (Kinetic®) was included in the solution at a volume of 0.01% (v/v). The vials were then inserted into an automated electrostatic sprayer equipped with an atomizing nozzle for application to plants/insects. Lima bean plants (variety Sieva) were grown 2 plants to a pot and selected for treatment at the 1st true leaf stage. Test solutions were sprayed onto the foliage by an automated electrostatic plant sprayer equipped with an atomizing spray nozzle. The plants were dried in the sprayer fume hood and then removed from the sprayer. Each pot was placed into perforated plastic bags with a zip closure. Ten to 11 armyworm larvae were placed into the bag and the bags zipped closed. Test plants were maintained in a growth room at about 25° C. and about 20-40% relative humidity for 4 days, avoiding direct exposure to fluorescent light (14:10 light:dark photoperiod) to prevent trapping of heat inside the bags. Mortality and reduced feeding were assessed 4 days after treatment, compared to untreated control plants.

The subject of the next assay is Plutella xylostella. Briefly: B.1 Diamond back moth, cabbage leaf dip test. The settings on record: foliar, 3rd instar larvae, 72 hours after treatment, read-out: mortality in comparison with untreated controls. On the procedure: B.1 Diamond Back Moth (Plutella xylostella)
The active compound was dissolved at the desired concentration in a mixture of 1:1 (vol:vol) distilled water:acetone. Surfactant (Kinetic HV) was added at a rate of 0.01% (vol/vol). The test solution was prepared on the day of use.
Leaves of cabbage were dipped in test solution and air-dried. Treated leaves were placed in petri dishes lined with moist filter paper and inoculated with ten 3rd instar larvae. Mortality was recorded 72 hours after treatment. Feeding damages were also recorded using a scale of 0-100%.

Another assay relates to Aedes aegypti. Briefly: B.7 Yellow fever mosquito, larvae in microtiter plates. Conditions: comparative experiment, larval mortality after 2 days, unit not given. The procedure:
B.7 Yellow Fever Mosquito (Aedes aegypti)
For evaluating control of yellow fever mosquito (Aedes aegypti) the test unit consisted of 96-well-microtiter plates containing 200 μl of tap water per well and 5-15 freshly hatched A. aegypti larvae.
The active compounds were formulated using a solution containing 75% (v/v) water and 25% (v/v) DMSO. Different concentrations of formulated compounds or mixtures were sprayed onto the insect diet at 2.5 μl, using a custom-built micro atomizer, at two replications.
After application, microtiter plates were incubated at 28±1° C., 80±5% RH for 2 days. Larval mortality was then visually assessed.

Each structure is given as a SMILES string.

With `CC(NC(=O)c1cc(Br)cc(C(F)(F)F)c1)c1nccnc1-n1ncn(C)c1=O` (stereo not shown) [I-1, 3-bromo-N-[1-[3-(4-methyl-5-oxo-1,2,4-triazol-1-yl)pyrazin-2-yl]ethyl]-5-(trifluoromethyl)benzamide], the mortality at 2500 ppm with Anthonomus grandis, in the assay with Heliothis virescens and in the assay on Myzus persicae was no less than 75% each time. Also, the mortality at 300 ppm with Dichromothrips corbetti is no less than 75%.
For the molecule `CC(NC(=O)c1cc(Br)cc(C(F)(F)F)c1)c1nccnc1-n1ncn(CC(F)(F)F)c1=O` (stereo not shown) [I-2, 3-bromo-N-[1-[3-[5-oxo-4-(2,2,2-trifluoroethyl)-1,2,4-triazol-1-yl]pyrazin-2-yl]ethyl]-5-(trifluoromethyl)benzamide], the mortality at 2500 ppm in the assay on Anthonomus grandis, with Heliothis virescens and in the assay with Myzus persicae was no less than 75% throughout. For the same molecule, the mortality at 300 ppm in the assay on Dichromothrips corbetti is no less than 75%.
On to `CC(NC(=O)c1cc(C(F)(F)F)cc(C(F)(F)F)c1)c1nccnc1-n1ncn(C)c1=O` (stereo not shown) [I-10], for which the mortality at 300 ppm in the assay with Spodoptera eridania, in the assay on Plutella xylostella and in the assay with Dichromothrips corbetti was no less than 75% each time. In addition, the mortality at 2500 ppm in the assay with Anthonomus grandis, with Heliothis virescens and with Myzus persicae was no less than 75% in each case. For the same molecule, in the assay on Dichromothrips corbetti, the “B.6, 100 ppm” value is listed as 100. Besides, the “B.2, 10 ppm” value with Myzus persicae was found to be 100.
For `CC(c1nccnc1-n1ncn(CC(F)(F)F)c1=O)N(CC1CC1)C(=O)c1cc(C(F)(F)F)cc(C(F)(F)F)c1` (stereo not shown) [I-15], the mortality at 300 ppm with Spodoptera eridania, in the assay with Plutella xylostella and in the assay with Dichromothrips corbetti was no less than 75% throughout. The mortality at 2500 ppm in the assay on Anthonomus grandis, in the assay on Heliothis virescens and with Myzus persicae was no less than 75% throughout. Also, the “B.7, 10 ppm” value with Aedes aegypti amounted to 100. Further, the “B.2, 25 ppm” value in the assay with Myzus persicae is listed as 100.
In the case of `CC(c1nccnc1-n1cncn1)N(CC1CC1)C(=O)c1cc(C(F)(F)F)cc(C(F)(F)F)c1` (stereo not shown) [WO2021/037614 P48, reference compound], the “B.7, 10 ppm” value in the assay with Aedes aegypti came out at 0. Also, in the assay with Myzus persicae, the “B.2, 25 ppm” value is recorded as 50.
With `CC(c1nccnc1-n1ncn(C)c1=O)N(C)C(=O)c1cc(Br)cc(S(C)(=O)=O)c1` (stereo not shown) [I-8, 3-bromo-N-methyl-N-[1-[3-(4-methyl-5-oxo-1,2,4-triazol-1-yl)pyrazin-2-yl]ethyl]-5-methylsulfonyl-benzamide], the mortality at 2500 ppm in the assay on Myzus persicae is no less than 75%.
The same measure, in the same setting: with `COc1ccc(Cn2cnn(-c3nccnc3C(C)NC(=O)c3cc(Br)cc(S(C)(=O)=O)c3)c2=O)cc1` (stereo not shown) [I-3, 3-bromo-N-[1-[3-[4-[(4-methoxyphenyl)methyl]-5-oxo-1,2,4-triazol-1-yl]pyrazin-2-yl]ethyl]-5-methylsulfonyl-benzamide] the figure was no less than 75%.
As to `CC(NC(=O)c1cc(Br)cc(S(C)(=O)=O)c1)c1nccnc1-n1ncn(CC2CC2)c1=O` (stereo not shown) [I-5, 3-bromo-N-[1-[3-[4-(cyclopropylmethyl)-5-oxo-1,2,4-triazol-1-yl]pyrazin-2-yl]ethyl]-5-methylsulfonyl-benzamide], the mortality at 300 ppm in the assay with Spodoptera eridania and with Plutella xylostella was no less than 75% in each case. Besides, the mortality at 2500 ppm with Anthonomus grandis and in the assay on Myzus persicae was no less than 75% each time.
As to `CC(NC(=O)c1cc(C(F)(F)F)cc(C(F)(F)F)c1)c1nccnc1-n1cncn1` (stereo not shown) [WO2021/037614 P46, reference compound], the “B.6, 100 ppm” value in the assay on Dichromothrips corbetti is 0. Moreover, the “B.2, 10 ppm” value in the assay with Myzus persicae was 25.

What is called mortality is the share of the test organisms that died.
